# Values of other authors, collected in PMC11083148, “Structure–Activity Relationship Studies on Highly Functionalized Pyrazole Hydrazones and Amides as Antiproliferative and Antioxidant Agents” (International Journal of Molecular Sciences, 2024).
# Set-up: method as in PMID 32932211
# Conditions: ABTS scavenging assay; cited from earlier work
structure (smiles),measurement,value
Nc1c(C(F)(F)F)n[nH]c1-c1cccs1 [IIb],IC50,17.6 µM
same,Trolox equivalent antioxidant capacity (TEAC),1.10
